# Measurements as given in patent US20250319073A1, “COMPOSITIONS AND METHODS FOR THE TREATMENT OF HUNTINGTON’S DISEASE AND HTT PROTEINOPATHIES” (priority 2022, published 2025).
# Test system: Peripheral Blood Mononuclear Cells (PBMC)
# Test: MitoSOX mitochondrial ROS assay (flow cytometry) in PBMCs of treated mice
# Format: in vivo, mouse
# Conditions: R6/2 mice, 0.5 mg/kg / 5 mg/kg i.p. QD, PBMCs collected at 13 weeks of age
# Method: Euthanasia & Sample Collection—At 13 weeks of age, 9 mice per group were euthanized by deep anesthesia with sodium pentobarbital (180 mg/kg). The remaining mice were euthanized and any samples were not collected, except the tail and ear samples. A terminal blood sample (as much as possible) was collected by cardiac puncture into a syringe. The whole blood was placed in Li-Hep tube at RT and used immediately for preparation of PBMCs. The whole brain was collected and fresh frozen in liquid nitrogen and stored at −80° C. Blood was collected also from extra animals as staining controls for the flow cytometry assays (n=3 extra animals per day). Tail and ear samples were collected for possible post-study re-genotype analysis. […] Right before measurement 1 μL of propidium iodide was added and the cell number and viability was determined by MACSquant Analyzer 10 flow cytometer. […] The cells were analyzed immediately after the staining using the MACSQuant Analyzer 10 (Miltenyi Biotec) and Cytation 3 (Cell titerglow). […] Oxidation of MitoSOX™ Red reagent by superoxide produces red fluorescence and can be used to reliably the relative differences in mitochondrial ROS formation in cells. […] Concentrations exceeding 5 μM can produce cytotoxic effects, including altered mitochondrial morphology and redistribution of fluorescence to nuclei and the cytosol. • 2. […]
structure (smiles),measurement,value
"Cc1cc(O)cc(C)c1C[C@H](NC(=O)[C@H](N)CCCNC(=N)N)C(=O)N[C@@H](CCCCN)c1nc(Cc2ccccc2)no1.Cl.Cl [Compound (Ia), (R)-2-amino-N—((S)-1-(((S)-5-amino-1-(3-benzyl-1,2,4-oxadiazol-5-yl)pentyl)amino)-3-(4-hydroxy-2,6-dimethylphenyl)-1-oxopropan-2-yl)-5-guanidinopentanamide]","mitochondrial ROS formation (MitoSOX) in PBMCs, R6/2+Vehicle vs treated R6/2",no significant differences
